{
  "source": "paper PMC5171790",
  "about": "“Ribavirin suppresses bacterial virulence by targeting LysR-type transcriptional regulators” (Scientific Reports, 2016)",
  "key": {"[1]": {"target": "Hrg", "test": "ITC", "details": "10 mM sodium phosphate, 50 mM NaCl, pH 7.4, 25 °C; single-site model"}, "[2]": {"target": "T1, AphB (Vibrio cholerae, UniProt Q9KT56)", "T1 construct": "gene VC_1049", "test": "biochemical"}},
  "data": [
    {"molecule": "NC(=O)c1ncn([C@@H]2O[C@H](CO)[C@@H](O)[C@H]2O)n1", "note": "[ribavirin, 1-D-ribofuranosyl-1H-1,2,4-triazole-3-carboxamide]", "values": [
      {"measurement": "Kd", "setting": "[1]", "value": 235, "unit": "µM"},
      {"measurement": "Kd", "setting": "[2]", "value": "~300", "unit": "µM"}
    ]}
  ]
}
